Measured values: PMC9249674, “A small-molecule Skp1 inhibitor elicits cell death by p53-dependent mechanism” (iScience, 2022)

What was measured:
A549 cells = assay: Cell viability assay (Cell-Titer GLO); type: cell-based, human; settings: Homo sapiens; A549; Lung cancer; 48 h; read-out: Anti-proliferative EC50
Procedure: The media was according to culture conditions of each individual cell line (mentioned above). After 12 hrs, compounds were added in a total volume of 5 μL of media (two-fold diluted) to each well with final concentrations from 5 nM to 30 μM. The measurements were conducted 48 hrs after seeding of the cells. Then, 25 μL of Cell-Titer GLO reagent (Promega) was added, and luminescence was measured on an EnSpire multimode plate reader (PerkinElmer), according to the manufacturer’s instructions. The estimated in vitro half-maximal inhibitory concentration (EC50) values were calculated using GraphPad Prism® v6.0 (San Diego, CA) software. The cell viability for A549 cells was also performed for 72- and 96-hrs by using the same experimental conditions as described above.

[1] = molecular target: T1, Skp1-ΔSkp2^F−box-peptide interaction (Homo sapiens, UniProt P63208); assay: FP-based in vitro competition assay; type: binding; settings: 200 μM compound, 25 μM Skp1^WT, 500 nM tracer
T1 construct: recombinantly purify intact (Skp1^WT) and truncate (ΔSkp1^1−140; lacking H8-helix) forms of Skp1; His6; made in house; host or cells: Escherichia coli BL21 (DE3)
T1 sequence (P63208 whole entry, stated change not applied, the tested form may be a part): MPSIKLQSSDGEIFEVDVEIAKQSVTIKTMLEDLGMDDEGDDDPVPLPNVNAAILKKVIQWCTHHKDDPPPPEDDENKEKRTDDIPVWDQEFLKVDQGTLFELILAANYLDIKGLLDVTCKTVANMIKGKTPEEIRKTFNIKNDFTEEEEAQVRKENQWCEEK
Procedure: FP measurements were performed using an EnVision multilabel Reader (Perkin Elmer). […] Lyophilized F-box-FAM peptide was initially dissolved in a Tris buffer (20 mM Tris-HCl pH 9.0, 150 mM NaCl, 2 mM DTT), and then a stock solution of 100 μM was prepared by subsequent dilutions in a FP buffer (20 mM Tris-HCl pH 8.0, 150 mM NaCl, 2 mM DTT, 5% (v/v) glycerol, 0.001% (v/v) Triton X-100). Specific controls groups included free F-box-FAM (tracer), bound F-box-FAM in the presence of protein (Skp1^WT or ΔSkp1^1−140), and FP buffer for every measurement, allowing accurate estimation of specific polarization.
The selected subset of compounds were initially assayed at final concentration of 200 μM. The compounds were incubated at room temperature with Skp1^WT for 1 hr, followed by the addition of the tracer. […] After incubation for another 2 hrs, FP signals was measured on an EnVision multilabel Reader. The FP response was measured in quadruplicates with controls including free F-box-FAM (tracer), bound Skp1^WT-F-box-FAM, and FP buffer. The resultant FP values were plotted as bar graphs using ORIGIN Lab software.
For gradient FP assay, protein samples were mixed with an appropriate concentrations of ligand over the range of several folds. […] The IC50 value of the compound in the gradient-concentration assay was determined with nonlinear regression and fitting using the following equation in GraphPad Prism® v6.0 (San Diego, CA). Y = Bottom + (Top – Bottom)/(1 + 10^X−LogIC50). […] In short, the relationship between the IC50 of the inhibitor and the Ki of the inhibitor depends on the KD of the fluorescent ligand and the concentration of the receptor.

inhibition at 200 µM [1] [%] | SMILES | EC50 (A549 cells) [µM]
– | C/C=C(/C)C(=O)O[C@H]1[C@@H]2[C@H](C)C(=O)O[C@@H]2C[C@@H](C)[C@@H]2C=CC(=O)[C@]21C [6-OAP, Brevilin A, reference compound] | 14.1 ± 2.25
> 50 | COc1ccc(-c2cc(-c3cccc(N)c3)ccn2)cc1 [JH-3, 3-(2-(4-Methoxyphenyl)pyridin-4-yl)aniline] | –
